# Measurements reported in article PMC10644342, “Improved Antibacterial Activity of 1,3,4-Oxadiazole-Based Compounds That Restrict Staphylococcus aureus Growth Independent of LtaS Function” (ACS Infectious Diseases, 2023).
# Read-outs that look alike come from different tables or passages of the source.
# Key:
# S. aureus = assay: MIC, broth microdilution (CLSI); type: cell-based, Staphylococcus aureus; conditions: for MIC: read-out: minimum inhibitory concentration; for MIC50: used for selectivity index; for MIC range against S. aureus strains: collection of S. aureus strains incl. multidrug-resistant MRSA and VRSA
# Procedure: (§1) S. aureus, S. epidermidis, E. faecalis, and E. faecium strains were routinely cultivated on tryptic soy agar (TSA) and grown for 18 h at 37 °C. S. aureus single colonies were subsequently transferred into 2 mL of tryptic soy broth (TSB) and grown for a further 18 h at 37 °C while being shaken at 180 rpm. S. pyogenes, S. agalactiae, and S. dysgalactiae strains were routinely cultured on TSA supplemented with 5% sheep blood and grown for 18 h at 37 °C with 5% CO2. E. coli was grown in LB broth at 37 °C. For LtaS-deficient strains, TSB was supplemented with 0.5 M NaCl to provide an osmotically balanced environment and instead grown at 30 °C. For strains harboring the pRMC2 tetracycline inducible vector,[61] the growth medium was supplemented with 10 μg/mL chloramphenicol and […] anhydrotetracycline hydrochloride (Sigma). Phenylalanine-arginine β-naphthylamide (PAβN) (Sigma) was dissolved in sterile water.
# (§2) B. subtilis, staphylococcal, and enterococcal strains were grown in Mueller Hinton broth (MHB), while streptococcal strains were grown in MHB supplemented with 5% laked horse blood. All strains were grown for 18 h at 37 °C. The overnight cultures were subsequently subcultured 1:200 and grown to the exponential phase (OD600nm = 0.5–0.6) in fresh broth. 1771 and its derivatives 9–14 were reconstituted in DMSO and further diluted by performing a 1:2 serial dilution ranging between 256 and 0.125 μg/mL in a 96-well microtiter plate. One hundred microliters of 0.5 McFarland standardized inoculum (approximately equal to 5 × 10^5 cfu) were then dispensed into each well in the 96-well microtiter plate. The plate was incubated for 18 h at 37 °C.
# E. faecalis (JH2-2) = assay: MIC, broth microdilution (CLSI); type: cell-based; conditions: Enterococcus faecalis
# Procedure: as §1, §2
# E. faecium (C68) = assay: MIC, broth microdilution (CLSI); type: cell-based; conditions: Enterococcus faecium
# Procedure: as §1, §2
# S. agalactiae = assay: MIC, broth microdilution (CLSI); type: cell-based; conditions: Streptococcus agalactiae
# Procedure: as §1, §2
# S. dysgalactiae = assay: MIC, broth microdilution (CLSI); type: cell-based; conditions: Streptococcus dysgalactiae
# Procedure: as §1, §2
# S. pyogenes = assay: MIC, broth microdilution (CLSI); type: cell-based; conditions: Streptococcus pyogenes
# Procedure: as §1, §2
# S. aureus strain SH1000 = assay: Biofilm prevention, crystal violet assay; type: cell-based, Staphylococcus aureus; conditions: for concentration causing a 50% reduction in biofilm formation: SH1000, 24 h
# Procedure: (§3) An indication of the biofilm prevention capabilities of 1771 and its derivatives 9–14 was achieved through the application of the crystal violet assay. S. aureus strain SH1000 and S. epidermidis strain RP62A were used, as they are strong biofilm formers. Overnight cultures were diluted 1:200 in fresh TSB containing 0.5% glucose (TSB-G), and 100 μL was added to individual wells in a 96-well microtiter plate. One hundred microliters of 1771 and 9–14 were diluted in TSB-G and added to bacteria at a final concentration ranging from 256 to 0.25 μg/mL with subsequent incubation for 24 h at 37 °C in a static incubator. Following incubation, biofilms were washed four times with ddH2O before being stained with 150 μL of 0.1% crystal violet for 30 min at room temperature. Following a further four washes in ddH2O, wells were resuspended in 200 μL of 7% acetic acid. The absorbance intensity of the crystal violet was measured at abs595nm in a Sunrise plate reader. Biomass formed was measured as a percentage of the no-compound control.
# [1] = test system: S. epidermidis strain RP62A; assay: Biofilm prevention, crystal violet assay; type: cell-based, Staphylococcus epidermidis; conditions: for concentration causing a 50% reduction in biofilm formation: 24 h
# Procedure: as §3
# E. coli strain K12 = assay: Growth inhibition in combination with PAβN; type: cell-based, Escherichia coli; conditions: for concentration at which growth was completely inhibited: E. coli K12, 50 μg/mL PAβN; for MIC: Escherichia coli, E. coli K12, 100 μg/mL PAβN
# Procedure: Phenylalanine-arginine β-naphthylamide (PAβN) is a well-studied efflux pump inhibitor, which can also permeabilize the outer membrane of Gram-negative organisms.[40] […] Without the addition of PAβN (0 μg/mL), neither 1771 nor 13 had any growth inhibitory activity at concentrations up to 64 μg/mL. With the addition of 25 μg/mL of PAβN, the E. coli strain K12 could still grow in the presence of 64 μg/mL of 1771 or 13; however, the growth rate was severely impacted in a dose-dependent manner. […] To further evaluate the Gram-negative coverage of 1771 and 13, we also tested 1771 or 13 in combination with PAβN against Pseudomonas aeruginosa strain PAO1, Klebsiella pneumoniae strain 699 (clinical isolate), and Acinetobacter baumannii strain DF1000 (clinical isolate) (Figure S6a–c).
# Figure 8 Permeabilization of the outer membrane renders E. coli susceptible to 1771 and 13. Bacterial growth curves of (a) 1771 and (b) 13 (0–64 μg/mL) in combination with 0, 25, 50, and 100 μg/mL of PAβN. The bacterial growth (OD600nm) was plotted against time following 18 h of growth at 37 °C. The icons represent the mean of three biological replicates.
# [2] = Staphylococcus aureus, NEWMAN, strain Newman
# [3] = Staphylococcus aureus, strain EMRSA-15
# [4] = Staphylococcus aureus, strain LAC
# [5] = Staphylococcus aureus, strain MRSA252
# [6] = Staphylococcus aureus, strain MW2
# [7] = Staphylococcus aureus, strain Mu3
# [8] = Staphylococcus aureus, strain Mu50
# [9] = Staphylococcus aureus, strain SH1000
# [10] = Staphylococcus aureus, strain TW20
# [11] = NCTC10238, S. dysgalactiae (NCTC 10238)
# [12] = NCTC13762, S. dysgalactiae (NCTC 13762)
# [13] = NCTC8198, S. pyogenes (NCTC 8198)
# [14] = NCTC12048, S. pyogenes (NCTC 12048)
# [15] = E. coli K12, 25 μg/mL PAβN, growth rate severely impacted dose-dependently
# [16] = E. coli K12, without PAβN (0 μg/mL), 18 h
SMILES,MIC (S. aureus; [2]),MIC (S. aureus; [3]),MIC (S. aureus; [4]),MIC (S. aureus; [5]),MIC (S. aureus; [6]),MIC (S. aureus; [7]),MIC (S. aureus; [8]),MIC (S. aureus; [9]),MIC (S. aureus; [10]),MIC50 (S. aureus; Staphylococcus aureus),MIC range against S. aureus strains (S. aureus),MIC (E. faecalis (JH2-2)),MIC (E. faecium (C68)),MIC (S. agalactiae; S. agalactiae (18R521)),MIC (S. agalactiae; S. agalactiae (COH1)),MIC (S. dysgalactiae; [11]),MIC (S. dysgalactiae; [12]),MIC (S. pyogenes; [13]),MIC (S. pyogenes; [14]),concentration causing a 50% reduction in biofilm formation (S. aureus strain SH1000),further results
"O=C(COC(=O)Cc1coc2ccc3ccccc3c12)Nc1nnc(-c2ccccc2)o1 [Compound 1771, 2-Oxo-2-((5-phenyl-1,3,4-oxadiazol-2-yl)amino)ethyl 2-(Naphtho[2,1-b]furan-1-yl)acetate, reference compound]",4 to 8 µg/mL,8 to 16 µg/mL,8 µg/mL,8 µg/mL,8 µg/mL,8 to 16 µg/mL,4 to 8 µg/mL,4 to 8 µg/mL,8 µg/mL,8 µg/mL,4 to 16 µg/mL,16 µg/mL,> 128 µg/mL,128 µg/mL,> 128 µg/mL,> 128 µg/mL,128 µg/mL,32 to 64 µg/mL,128 µg/mL,4 µg/mL,concentration causing a 50% reduction in biofilm formation [1]: 8 µg/mL; growth inhibitory concentration (E. coli strain K12; [15]): > 64 µg/mL; concentration at which growth was completely inhibited (E. coli strain K12): 64 µg/mL; growth inhibitory concentration (E. coli strain K12; [16]): > 64 µg/mL; MIC (E. coli strain K12): 4 µg/mL
"O=C(COC(=O)Cc1coc2ccc3ccccc3c12)Nc1nnc(-c2ccc(S(F)(F)(F)(F)F)cc2)o1 [Compound 13, 2-Oxo-2-((5-(4-(pentafluoro-l6-sulfaneyl)phenyl)-1,3,4-oxadiazol-2-yl)amino)ethyl 2-(Naphtho[2,1-b]furan-1-yl)acetate]",0.5 µg/mL,0.5 µg/mL,0.5 µg/mL,1 µg/mL,0.5 µg/mL,0.5 µg/mL,0.5 µg/mL,0.5 µg/mL,0.5 µg/mL,0.5 µg/mL,0.5 to 1 µg/mL,2 µg/mL,> 128 µg/mL,64 µg/mL,128 µg/mL,64 µg/mL,64 µg/mL,16 to 32 µg/mL,64 µg/mL,0.25 µg/mL,"MIC90 (S. aureus; Staphylococcus aureus, against S. aureus): 0.5 µg/mL; fold increase in activity compared to 1771 (S. aureus; multidrug-resistant S. aureus strains): 16- to 32 fold; biofilm prevention compared with 1771 (S. aureus strain SH1000; SH1000): better than 1771; biofilm prevention compared with 1771 [1]: better than 1771; concentration causing a 50% reduction in biofilm formation [1]: 0.25 µg/mL; growth inhibitory concentration (E. coli strain K12; [15]): > 64 µg/mL; concentration at which growth was completely inhibited (E. coli strain K12): 64 µg/mL; growth inhibitory concentration (E. coli strain K12; [16]): > 64 µg/mL; MIC (E. coli strain K12): 1 µg/mL"
